Measurements: ChEMBL document CHEMBL5236654, “Fine-tuning of nitrogen-containing bisphosphonate esters that potently induce degradation of HMG-CoA reductase” (Bioorg Med Chem, 2023)

Experiments:
Assay type in all cases: cell-based
[1] = target: T1, 3-hydroxy-3-methylglutaryl-coenzyme A reductase (Homo sapiens, UniProt P04035); experiment: Induction of HMGCR degradation in HEK293 cells incubated for 4 hrs by luciferase based assay
T1 sequence (P04035 whole entry): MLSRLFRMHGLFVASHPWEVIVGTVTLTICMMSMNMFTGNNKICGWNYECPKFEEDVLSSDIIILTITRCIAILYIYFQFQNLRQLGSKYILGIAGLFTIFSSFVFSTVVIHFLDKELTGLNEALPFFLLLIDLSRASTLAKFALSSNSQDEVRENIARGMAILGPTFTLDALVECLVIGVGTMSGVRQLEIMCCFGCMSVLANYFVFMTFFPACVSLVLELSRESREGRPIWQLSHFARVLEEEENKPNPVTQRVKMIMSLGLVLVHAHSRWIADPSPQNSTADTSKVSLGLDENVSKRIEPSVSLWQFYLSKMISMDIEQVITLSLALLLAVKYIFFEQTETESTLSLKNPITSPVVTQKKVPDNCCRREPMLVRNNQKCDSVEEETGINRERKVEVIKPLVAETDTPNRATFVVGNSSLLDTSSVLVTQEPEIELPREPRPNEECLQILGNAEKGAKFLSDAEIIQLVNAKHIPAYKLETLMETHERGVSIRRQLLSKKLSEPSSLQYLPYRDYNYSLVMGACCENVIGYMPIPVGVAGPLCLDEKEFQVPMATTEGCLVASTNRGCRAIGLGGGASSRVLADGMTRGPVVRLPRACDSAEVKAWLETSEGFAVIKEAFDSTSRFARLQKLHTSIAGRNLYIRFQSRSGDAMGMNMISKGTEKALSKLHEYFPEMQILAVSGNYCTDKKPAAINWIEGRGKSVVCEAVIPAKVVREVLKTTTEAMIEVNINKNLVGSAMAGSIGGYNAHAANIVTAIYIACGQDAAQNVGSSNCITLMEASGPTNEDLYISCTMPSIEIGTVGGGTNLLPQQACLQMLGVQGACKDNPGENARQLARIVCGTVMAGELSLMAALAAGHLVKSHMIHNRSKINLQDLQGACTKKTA

[2] = target: T2, 3-hydroxy-3-methylglutaryl-coenzyme A reductase (Cricetulus griseus, UniProt P00347); experiment: Induction of HMGCR degradation in CHO-7 cells incubated for 16 hrs by immunoblotting assay
T2 sequence (P00347 whole entry): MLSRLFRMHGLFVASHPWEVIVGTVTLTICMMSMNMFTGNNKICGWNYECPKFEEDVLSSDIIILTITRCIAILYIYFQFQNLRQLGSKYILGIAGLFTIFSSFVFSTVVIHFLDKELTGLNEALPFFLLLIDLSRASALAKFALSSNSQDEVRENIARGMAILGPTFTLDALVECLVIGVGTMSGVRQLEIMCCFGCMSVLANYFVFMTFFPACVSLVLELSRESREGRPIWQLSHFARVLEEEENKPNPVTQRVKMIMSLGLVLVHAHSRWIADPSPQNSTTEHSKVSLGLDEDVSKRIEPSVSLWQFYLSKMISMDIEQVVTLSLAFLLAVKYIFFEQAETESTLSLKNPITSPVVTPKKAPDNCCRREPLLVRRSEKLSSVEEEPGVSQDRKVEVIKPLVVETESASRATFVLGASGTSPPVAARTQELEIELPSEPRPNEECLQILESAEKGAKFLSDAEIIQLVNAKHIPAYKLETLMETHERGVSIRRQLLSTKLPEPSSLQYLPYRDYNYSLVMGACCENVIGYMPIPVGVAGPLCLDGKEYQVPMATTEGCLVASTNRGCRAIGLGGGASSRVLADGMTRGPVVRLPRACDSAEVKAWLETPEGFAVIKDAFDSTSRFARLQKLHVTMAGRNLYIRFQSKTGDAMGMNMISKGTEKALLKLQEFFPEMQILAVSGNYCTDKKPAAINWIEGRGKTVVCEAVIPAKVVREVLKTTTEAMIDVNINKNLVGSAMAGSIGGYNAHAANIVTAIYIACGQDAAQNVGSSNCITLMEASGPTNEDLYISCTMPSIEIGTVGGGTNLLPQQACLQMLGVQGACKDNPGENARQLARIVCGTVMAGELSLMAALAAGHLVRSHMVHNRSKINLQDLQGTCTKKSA

[3] = target: T1, 3-hydroxy-3-methylglutaryl-coenzyme A reductase; experiment: Induction of HMGCR degradation in human HepG2 cells incubated for 3 hrs by densitometric analysis

SMILES	EC50 [1]	other results
CCCOP(=O)(OCCC)C(Cc1cc(C(C)(C)C)nc(C(C)(C)C)c1)P(=O)(OCCC)OCCC	0.832 µM	
CC(C)OP(=O)(OC(C)C)C(Cc1cc(C(C)(C)C)nc2ccccc12)P(=O)(OC(C)C)OC(C)C	1.45 µM	
CC(C)(C)c1cc(CC(P(=O)(OCC2CC2)OCC2CC2)P(=O)(OCC2CC2)OCC2CC2)cc(C(C)(C)C)n1	> 10 µM	
CCC(CC)c1cc(CC(P(=O)(OC(C)C)OC(C)C)P(=O)(OC(C)C)OC(C)C)cc(C(C)(C)C)n1	0.722 µM	
CCCCOP(=O)(OCCCC)C(Cc1cc(C(C)(C)C)nc(C(C)(C)C)c1)P(=O)(OCCCC)OCCCC	> 10 µM	
CC(C)OP(=O)(OC(C)C)C(Cc1cc(C(C)(C)C)nc(C23CC4CC(CC(C4)C2)C3)c1)P(=O)(OC(C)C)OC(C)C	2.26 µM	
CC(C)OP(=O)(OC(C)C)C(Cc1cc(C23CC4CC(CC(C4)C2)C3)nc(C23CC4CC(CC(C4)C2)C3)c1)P(=O)(OC(C)C)OC(C)C	> 10 µM	
CC(C)OP(=O)(OC(C)C)C(Cc1cc(C(C)(C)C)cc(C(C)(C)C)n1)P(=O)(OC(C)C)OC(C)C	0.693 µM	
C=CCC(O)(CC=C)CCC[C@@H](C)[C@H]1CC[C@H]2[C@@H]3[C@@H](O)C=C4C(C)(C)[C@@H](O)CC[C@]4(C)[C@H]3CC[C@]12C		EC50 [2]: 0.39 µM
CC(C)OP(=O)(OC(C)C)C(Cc1cc(Cc2ccccc2)nc(C(C)(C)C)c1)P(=O)(OC(C)C)OC(C)C	0.874 µM	
CCOP(=O)(OCC)C(Cc1cc(C(C)(C)C)c(O)c(C(C)(C)C)c1)P(=O)(OCC)OCC		EC50 [3]: 1.1 µM
CCOP(=O)(OCC)C(Cc1cc(C(C)(C)C)nc(C(C)(C)C)c1)P(=O)(OCC)OCC	0.337 µM	
CC(C)OP(=O)(OC(C)C)C(Cc1cc(C2CCCCC2)nc(C(C)(C)C)c1)P(=O)(OC(C)C)OC(C)C	0.598 µM	
CC(C)OP(=O)(OC(C)C)C(Cc1cc(C2CCCCC2)nc(C2CCCCC2)c1)P(=O)(OC(C)C)OC(C)C	> 10 µM	
CCC(CF)(CF)c1cc(CC(P(=O)(OC(C)C)OC(C)C)P(=O)(OC(C)C)OC(C)C)cc(C(CC)(CF)CF)n1	0.356 µM	
CC(C)COP(=O)(OCC(C)C)C(Cc1cc(C(C)(C)C)nc(C(C)(C)C)c1)P(=O)(OCC(C)C)OCC(C)C	> 10 µM	
CC(C)OP(=O)(OC(C)C)C(Cc1cc(C(C)(C)C)nc(C(C)(C)C)n1)P(=O)(OC(C)C)OC(C)C	0.45 µM	
CC(C)OP(=O)(OC(C)C)C(Cc1cc(C(C)(C)C)nc(C(C)(C)COCc2ccccc2)c1)P(=O)(OC(C)C)OC(C)C	0.311 µM	
CCCCC(CC)c1cc(CC(P(=O)(OC(C)C)OC(C)C)P(=O)(OC(C)C)OC(C)C)cc(C(C)(C)C)n1 (centres undefined)	0.99 µM	

More lines, main results first:

EC50 [1]	SMILES	other results
0.132 µM	CC(C)OP(=O)(OC(C)C)C(Cc1cc(C(C)(C)C)nc(C(C)(C)C)c1)P(=O)(OC(C)C)OC(C)C	
0.351 µM	CC(C)OP(=O)(OC(C)C)C(Cc1cc(C(C)C)nc(C(C)(C)C)c1)P(=O)(OC(C)C)OC(C)C	
0.102 µM	CCC(CF)(CF)c1cc(CC(P(=O)(OC(C)C)OC(C)C)P(=O)(OC(C)C)OC(C)C)cc(C(C)(C)C)n1	
0.389 µM	CC(C)OP(=O)(OC(C)C)C(Cc1cc(C(C)(C)C)nc(C(C)(C)CO)c1)P(=O)(OC(C)C)OC(C)C	
0.0842 µM	CC(C)OP(=O)(OC(C)C)C(Cc1cc(C(C)(C)CF)nc(C(C)(C)CF)c1)P(=O)(OC(C)C)OC(C)C	
0.492 µM	COCOCC(C)(C)c1cc(CC(P(=O)(OC(C)C)OC(C)C)P(=O)(OC(C)C)OC(C)C)cc(C(C)(C)C)n1	
0.336 µM	CCCC(C)(C)c1cc(CC(P(=O)(OC(C)C)OC(C)C)P(=O)(OC(C)C)OC(C)C)cc(C(C)(C)C)n1	
0.0982 µM	CCC(C)(C)c1cc(CC(P(=O)(OC(C)C)OC(C)C)P(=O)(OC(C)C)OC(C)C)cc(C(C)(C)CC)n1	
0.152 µM	CCC(C)(C)c1cc(CC(P(=O)(OC(C)C)OC(C)C)P(=O)(OC(C)C)OC(C)C)cc(C(C)(C)C)n1	
0.0976 µM	CC(C)OP(=O)(OC(C)C)C(Cc1cc(C(C)(C)C)nc(C(C)(C)CF)c1)P(=O)(OC(C)C)OC(C)C	
